Assay results taken from US6576620B2, “Method of identifying partial adenosine A1 receptor agonists” (CV Therapeutics, Inc., priority 1999, dated 2003).

Tested on: Adenosine A1 receptor
Experiment: A1-agonist stimulated [35S]GTPγS binding to G proteins
Format: biochemical
Details: Table 1, compounds of Example 2; normalized to the full agonist CPA
Method: At the end of the incubation, each suspension was filtered and the retained radioactivity determined as described above.

Going from “2-{6-[((3R)oxolan-3-yl)amino]purin-9-yl}(4S,2R,3R,5R)-5-{[cyclopentyloxythioxomethyl)amino]methyl}oxolane-3,4-diol [Compound 72 of Example 2]” to `CC(C)NC(=O)OC[C@H]1O[C@@H](n2cnc3c(N[C@@H]4CCOC4)ncnc32)[C@H](O)[C@@H]1O` [Compound 32 of Example 2, {(5-{6-[((3R)oxolan-3-yl)amino]purin-9-yl}(3S,2R,4R,5R)-3,4-dihydroxyoxolan-2-yl)methoxy]-N-(methylethyl)carboxamide], the GTPγS falls from 93% to 91%.

Going from `COC(=O)C1CCCC1NC(=O)OC[C@H]1O[C@@H](n2cnc3c(N[C@@H]4CCOC4)ncnc32)[C@H](O)[C@@H]1O` (stereo partly drawn) [Compound 34 of Example 2] to `CCOC(=O)[C@H]1C2C=CC(C2)[C@H]1NC(=O)OC[C@H]1O[C@@H](n2cnc3c(N[C@@H]4CCOC4)ncnc32)[C@H](O)[C@@H]1O` (stereo partly drawn) [Compound 35 of Example 2], the GTPγS rises from 17% to 52%.

Compared with `CCOC(=O)[C@H]1C2CCC(C2)[C@H]1NC(=O)OC[C@H]1O[C@@H](n2cnc3c(N[C@@H]4CCOC4)ncnc32)[C@H](O)[C@@H]1O` (stereo partly drawn) [Compound 36 of Example 2], `O=C(N[C@@H]1CCC[C@H]1OCc1ccccc1)OC[C@H]1O[C@@H](n2cnc3c(N[C@@H]4CCOC4)ncnc32)[C@H](O)[C@@H]1O` [Compound 37 of Example 2, {(5-{6 [((3R)oxolan-3-yl)amino]purin-9-yl}(3S,2R,4R,5R)-3,4-dihydroxyoxolan-2-yl)methoxy]-N-[(1R,2R)-2-(phenylmethoxy)cyclopentyl]carboxamide] is lower in GTPγS: 41% for the first, 30% for the second.

Compared with `O=C(N[C@H]1CCC[C@@H]1OCc1ccccc1)OC[C@H]1O[C@@H](n2cnc3c(N[C@@H]4CCOC4)ncnc32)[C@H](O)[C@@H]1O` [Compound 38 of Example 2, {(5-{6[((3R)oxolan-3-yl)amino]purin-9-yl}(3S,2R,4R,5R)-3,4-dihydroxyoxolan-2-yl)methoxy]-N-[(1 S,2S)-2-(phenylmethoxy)cyclopentyl]carboxamide], `O=C(NC1CCC1)OC[C@H]1O[C@@H](n2cnc3c(N[C@@H]4CCOC4)ncnc32)[C@H](O)[C@@H]1O` [Compound 39 of Example 2, [(5-{6-[((3R)oxolan-3-yl)amino}purin-9-yl}(3S,2R,4R,5R)-3,4-dihydroxyoxolan-2-yl)methoxy]-N-cyclobutylcarboxamide] is higher in GTPγS: 1% for the first, 67% for the second.

Compared with `O=C(NC1CC1c1ccccc1)OC[C@H]1O[C@@H](n2cnc3c(N[C@@H]4CCOC4)ncnc32)[C@H](O)[C@@H]1O` (stereo partly drawn) [Compound 40 of Example 2], `C=CCNC(=O)OC[C@H]1O[C@@H](n2cnc3c(N[C@@H]4CCOC4)ncnc32)[C@H](O)[C@@H]1O` [Compound 41 of Example 2, [(5-{6-[((3R)oxolan-3-yl)amino]purin-9-yl}(3S,2R,4R,5R)-3,4-dihydroxyoxolan-2-yl)methoxy]-N-prop-2-enylcarboxamide] is higher in GTPγS: −6% for the first, 48% for the second.

Compared with `CCOC(=O)CCNC(=O)OC[C@H]1O[C@@H](n2cnc3c(N[C@@H]4CCOC4)ncnc32)[C@H](O)[C@@H]1O` [Compound 42 of Example 2, Ethyl 3-{[(5-{6-[((3R)oxolan-3-yl)amino]purin-9-yl}(3S, 2R,4R,5R)-3,4-dihydroxyoxolane-2-yl)methoxy}carbonylamino}propanoate], `COC(=O)CNC(=O)OC[C@H]1O[C@@H](n2cnc3c(N[C@@H]4CCOC4)ncnc32)[C@H](O)[C@@H]1O` [Compound 43 of Example 2, Methyl 2-{[(5-{6-[((3R)oxolan-3-yl)amino]purin-9-yl}(3S, 2R,4R,5R)dihydroxyoxolane-2-yl)methoxy}carbonylamino}acetate] is higher in GTPγS: 47% for the first, 53% for the second.

First: CCCCNC(=S)OC[C@H]1O[C@@H](n2cnc3c(N[C@@H]4CCOC4)ncnc32)[C@H](O)[C@@H]1O [Compound 48 of Example 2, 2-{6-[((3R)oxolan-3-yl)amino]purin-9-yl}(4S,2R,3R,5R)-5-{[(butylamino)thioxomethoxy]methyl}oxolane-3,4-diol]
Second: O[C@@H]1[C@H](O)[C@@H](COC(=S)N2CCCCC2)O[C@H]1n1cnc2c(N[C@@H]3CCOC3)ncnc21 [Compound 50 of Example 2, 2-{6-[((3R)oxolan-3-yl)amino]purin-9-yl}(4S,2R,3R,5R)-5-[(piperidylthioxomethoxy)methyl]oxolane-3,4-diol]
The GTPγS of the first is lower: 70% for the first, 88% for the second.

First: O[C@@H]1[C@H](O)[C@@H](COC(=S)N2CCCC2)O[C@H]1n1cnc2c(N[C@@H]3CCOC3)ncnc21 [Compound 52 of Example 2, 2-{6-[((3R)oxolan-3-yl)amino]purin-9-yl}(4S,2R,3R,5R)-5-[(pyrrolidinylthioxomethoxy)methyl]oxolane-3,4-diol]
Second: CN(C)C(=S)OC[C@H]1O[C@@H](n2cnc3c(N[C@@H]4CCOC4)ncnc32)[C@H](O)[C@@H]1O [Compound 53 of Example 2, 2-{6-[((3R)oxolan-3-yl)amino]purin-9-yl}(4S,2R,3R,5R)-5-{[(dimethylamino)thioxomethoxy]methyl}oxolane-3,4-diol]
The GTPγS of the first is lower: 77% for the first, 85% for the second.

Compared with `O[C@@H]1[C@H](O)[C@@H](COC(=S)NCc2ccccc2)O[C@H]1n1cnc2c(N[C@@H]3CCOC3)ncnc21` [Compound 54 of Example 2, 2-{6-[((3R)oxolan-3-yl)amino]purin-9-yl}(4S,2R,3R,5R)-5-({[benzylamino]thioxomethoxy}methyl)oxolane-3,4-diol], `O[C@@H]1[C@H](O)[C@@H](COC(=S)NC2CCCCC2)O[C@H]1n1cnc2c(N[C@@H]3CCOC3)ncnc21` [Compound 55 of Example 2, 2-{6-[((3R)oxolan-3-yl)amino]purin-9-yl}(4S,2R,3R,5R)-5-({[cyclohexylamino]thioxomethoxy}methyl)oxolane-3,4-diol] is lower in GTPγS: 93% for the first, 82% for the second.

Going from `O[C@@H]1[C@H](O)[C@@H](COC(=S)N[C@H]2CCC[C@@H]2OCc2ccccc2)O[C@H]1n1cnc2c(N[C@@H]3CCOC3)ncnc21` [Compound 56 of Example 2, 2-{6-[((3R)oxolan-3-yl)amino]purin-9-yl}(4S,2R,3R,5R)-5-[({[(1S,2S)-2-(phenylmethoxy)cyclopentyl]amino}thioxomethoxy)methyl]oxolane-3,4-diol] to `O[C@@H]1[C@H](O)[C@@H](COC(=S)N[C@@H]2CCC[C@H]2OCc2ccccc2)O[C@H]1n1cnc2c(N[C@@H]3CCOC3)ncnc21` [Compound 57 of Example 2, 2-{6-[((3R)oxolan-3-yl)amino]purin-9-yl}(4S,2R,3R,5R)-5-[(([(1R,2R)-2-(phenylmethoxy)cyclopentyl]amino}thioxomethoxy)methyl]oxolane-3,4-diol], the GTPγS rises from 52% to 67%.

Going from `O[C@@H]1[C@H](O)[C@@H](COC(=S)NC2CCC2)O[C@H]1n1cnc2c(NC3CCOC3)ncnc21` (stereo partly drawn) [Compound 58 of Example 2, 2-{6-[((3)oxolan-3-yl)amino]purin-9-yl}(4S,2R,3R,5R)-5{[(cyclobutylamino)thioxomethoxy]methyl}oxolane-3,4-diol] to `O[C@@H]1[C@H](O)[C@@H](COC(=S)NC2CC2)O[C@H]1n1cnc2c(N[C@@H]3CCOC3)ncnc21` [Compound 59 of Example 2, 2-{6-[((3R)oxolan-3-yl)amino]purin-9-yl}(4S,2R,3R,5R)-5-{[(cyclopropylamino)thioxomethoxy]methyl}oxolane-3,4-diol], the GTPγS rises from 79% to 82%.

Going from `C=CCNC(=S)OC[C@H]1O[C@@H](n2cnc3c(N[C@@H]4CCOC4)ncnc32)[C@H](O)[C@@H]1O` [Compound 60 of Example 2, 2-{6-[((3R)oxolan-3-yl)amino]purin-9-yl}(4S,2R,3R,5R)-5-{[(prop-2-enylamino)thioxomethoxy]methyl}oxolane-3,4-diol] to `O=C(N[C@H]1CCC[C@@H]1O)OC[C@H]1O[C@@H](n2cnc3c(N[C@@H]4CCOC4)ncnc32)[C@H](O)[C@@H]1O` [Compound 61 of Example 2], the GTPγS falls from 77% to 59%.

First: O=C(N[C@@H]1CCC[C@H]1O)OC[C@H]1O[C@@H](n2cnc3c(N[C@@H]4CCOC4)ncnc32)[C@H](O)[C@@H]1O [Compound 62 of Example 2, {(5-{6[((3R)oxolan-3-yl)amino]purin-9-yl}(3S,2R,4R,5R)-3,4-dihydroxyoxolan-2-yl)methoxy]-N-((1R,2R)-2-hydroxycyclopentyl)carboxamide]
Second: O[C@@H]1[C@H](O)[C@@H](COC(=S)N[C@@H]2CCC[C@H]2O)O[C@H]1n1cnc2c(N[C@@H]3CCOC3)ncnc21 [Compound 63 of Example 2, 2-{6-[((3R)oxolan-3-yl)amino]purin-9-yl}(4S,2R,3R,5R)-5-({[((1R,2R)-2-hydroxycyclopentyl)amino]thioxomethoxy}methyl)oxolane-3,4-diol]
The GTPγS of the first is lower: 42% for the first, 100% for the second.

Same assay, conditions: Table 2, compounds of Example 3; normalized to the full agonist CPA

`CCNc1nc2c(N[C@@H]3CCOC3)ncnc2n1[C@@H]1O[C@H](CO)[C@@H](O)[C@H]1O` [Compound 5 of Example 3, 2-{6-[((3R)oxolan-3-yl)amino]-8-(ethylamino)purin-9-yl}(4S,2R,3R,5R)-5-(hydroxymethyl)oxolane-3,4-diol] showed a GTPγS of 89%.

Same assay, conditions: Table 3, compounds of Example 4; normalized to the full agonist CPA

First: Cc1ccc(SC[C@H]2O[C@@H](n3cnc4c(N[C@@H]5CCOC5)ncnc43)[C@H](O)[C@@H]2O)cc1 [Compound 15 of Example 4, 2-{6-[((3R)oxolan-3-yl)amino]purin-9-yl}(4S,5S,2R,3R)-5-[(4-methylphenylthio)methyl]oxolane-3,4-diol]
Second: O[C@@H]1[C@H](O)[C@@H](CSc2ccc(C(F)(F)F)cc2)O[C@H]1n1cnc2c(N[C@@H]3CCOC3)ncnc21 [Compound 16 of Example 4, 2-{6-[((3R)oxolan-3-yl)amino]purin-9-yl}(4S,5S,2R,3R)-5-[(4-(trifluoromethyl)phenylthio)methyl]oxolane-3,4-diol]
The GTPγS of the first is higher: 48% for the first, 31% for the second.

`COc1ccccc1SC[C@H]1O[C@@H](n2cnc3c(N[C@@H]4CCOC4)ncnc32)[C@H](O)[C@@H]1O` [Compound 17 of Example 4, 2-{6-[((3R)oxolan-3-yl)amino]purin-9-yl}(4S,5S,2R,3R)-5-[(2-Methoxyphenylthio)methyl]oxolane-3,4-diol] was tested, and the GTPγS was 52%.
